In patent US4233309A, “Novel 1-substituted-3-acylpyrrole derivatives, platelet aggregation inhibitors containing them, as active ingredients, and processes for production of said derivatives” (Teijin Limited, priority 1977, dated 1980):
Where two headings read alike, the source gives them in different places.

How the values were obtained:
[1] = test system: biosynthesis of prostaglandins (microsomes of the seminal vesicle of bovine); assay: Inhibitory effect on prostaglandin biosynthesis in vitro (Table 3); assay type: biochemical; conditions: 4 μg/ml sodium arachidonate, bioassay on rat fundus stomach strips
Procedure: Sprangue-Dawley rats (male, 180-200 g) were fasted overnight, and killed by blow on the head. The stomach was isolated, and fundus stomach strips were prepared. The smooth muscle strips were perfused with Krebs-Hensleit solution (gassed with 95% O2 +5% CO2 gas) of 37° C. at a rate of […]. The Krebs-Hensleit solution contained 0.1 μg/ml of atropine, 0.1 μg/ml of phenoxybenzamine, 3 μg/ml of propranolol, 0.1 μg/ml of tripelennamine, and 0.2 μg/ml of methylsergide to prevent the effect of smooth muscle contracting substances, and 1 μg/ml of indomethacine to inhibit the biosynthesis of prostaglandin by the smooth muscles. Then, 150 μl of a reaction solution containing biologically synthesized prostaglandin was added to the perfusion solution, and the amount of the biologically synthesized prostaglandin was measured from the contraction of the smooth muscles. The contraction of the smooth muscles was recorded on a recorder using an isotonic transducer.
The reaction solution containing biologically synthesized prostaglandin was prepared in the following manner.
To 0.4 mg/ml of microsomes of the seminal vesicle of bovine were added 5 mM of L-tryptophan, 0.025 μM of bovine hemoglobin and 3 mμ of glutathione as cofactors. The mixture was incubated together with each of the test compounds shown in Table 4 at 37° C. for 2 minutes, and immediately then, 4 μg/ml of sodium arachidonate was added. The mixture was further incubated at 37° C. for 10 minutes, and immediately then, the prostaglandin activity of the reaction solution was measured by bioassay.
The microsomes of the seminal vesicle of bovine had been prepared by suspending microsomes of the seminal vesicle of bovine (a product of Miles Laboratories, Inc.) in a 50 mM Tris.HCl buffer (pH 7.4) using a glass homogenizer, and stored in ice water prior to use.
ID50 denotes the concentration of each test compound required to inhibit the biosynthesis of prostaglandins by 50%.

[2] = test system: platelet aggregation (guinea pig PRP, extra vivo); assay: Inhibitory effect of compounds on platelet aggregation in extra vivo (Table 4); design: species or system Hartley-strain guinea pigs; conditions: Cavia porcellus, 100 mg/kg PO, 1 h after administration
Procedure: The effect of the compounds shown in Table 4 on platelet aggregation was assessed using guinea pig in extra vivo.
Each of the test compounds was dissolved in propylene glycol so that its concentration became 100 mg/ml (dosage corresponded to 100 mg/kg) and 30 mg/ml (dosage corresponded to 30 mg/kg). The drug solution was administered either orally or subcutaneously to Hartley-strain guinea pigs (3 per group) having a body weight of 300 to 350 g. As a control, propylene glycol was administered. One hour after the administration, citrated blood was taken out by cardiac puncture, and centrifuged to obtain PRP (see Example 67).
In the case of oral administration, the animals had been fasted overnight.
Into a quvett set in a holder of an aggregometer and prewarmed at 37° C. with stirring, was put 450 μl of the above PRP, and then 50 μl of an aggregating agent was added. The aggregation curve was recorded for an additional 3 minutes, and an increase in light transmittance through PRP after 3 minutes (TB) was recorded (see Example 67). As a control, an increase of transmittance of PRP taken from a guinea pig group administered with propylene glycol alone (TA) was recorded in the same way above. The percent inhibitions were calculated in accordance with the following equation. [formula]
As the aggregating agent, sodium arachidonate (a final concentraton of 0.03 mM) and a collagen suspension (a final concentration of 5 μg/ml) were used.
The percent inhibitions in the above table are averages of three guinea pigs. For details of the above extra vivo test about inhibition of platelet aggregation, the literature references described in Example 67 may be referred to.

[3] = test system: carrageenan edema; assay: Antiinflammatory activity (carrageenan edema of rat paw, Table 5); assay type: in vivo, Sprangue-Dawley (SD) male rats; conditions: 100 mg/kg orally, 3 h after 1% carrageenan
Procedure: Sprangue-Dawley (SD) male rats with a body weight of 160 to 180 g, four in each group, were used. The volume of the left leg was measured, and each of the test compounds shown in Table 5 (100 mg/kg dissolved in polyethylene glycol so as to provide a volume of 2 ml/kg) was orally administered. One hour later, 0.1 ml of 1% carrageenan (dissolved in physiological saline) as an inflammation-inducing substance was subcutaneously injected to the paw of the left hind leg. A control group was orally administered with 2 ml/kg of polyethylene glycol. As a positive control, 25 mg/kg of Ibprofen was similarly administered. Three hours after the injection of 1% carrageenan, the volume of the left leg was measured, and the ratio of edema was calculated from the volume before the administration of the carrageenan. The percent inhibition of edema in comparison with the control group was determined.

[4] = Acute toxicity (Table 6); assay type: in vivo; conditions: mouse, in vivo, mice, Litchfield-Wilcoxon, read-out: LD50 (50% lethal dose)
Procedure: (§1) ICR male mice with a body weight of 24 to 27 g (5 to 6 per group) were used. Each test compound was dissolved in propylene glycol in various concentrations, and administered orally (in a volume of 0.1 to 0.05 ml/10 g), subcutaneously (in a volume of 0.1 to 0.05 ml/10 g), or intraperitoneally (in a volume of 0.05 ml/10 g) to the mice. […] The LD50 (50% lethal dose) of each test compound was determined by the Litchfield-Wilcoxon method.
(§2) The denominator indicates the number of mice used, and the numerator, the number of dead mice.

[5] = test system: ICR male mice; assay: Acute toxicity (Table 6); assay type: in vivo; conditions: 10 days
Procedure: as §1, §2

[6] = test system: platelet aggregation (guinea pig PRP, extra vivo); assay: Inhibitory effect of compounds on platelet aggregation in extra vivo (Table 4); design: species or system Hartley-strain guinea pigs; conditions: Cavia porcellus, 10 mg/kg SC, 1 h after administration
[7] = collagen 5 μg/ml, read-out: Percent inhibition of platelet aggregation, collagen
[8] = sodium arachidonate 0.03 mM, read-out: Percent inhibition of platelet aggregation, sodium arachidonate

Cc1cc(C(=O)c2ccccc2)c(C)n1CC(C)O (stereo not drawn) [Compound 102, 2-(3-benzoyl-2,5-dimethylpyrrol-1-yl)-1-methylethanol]
ID50 (concentration required to inhibit the biosynthesis of prostaglandins by 50%) [1]: 11.9 µg/mL | inhibition at 100 mg/kg [2, 7]: 29 to 55% | inhibition at 100 mg/kg [2, 8]: 54 to 89% | Percent inhibition of edema [3]: 8% | LD50 at 240 h ([4]; ip, intraperitoneal): 110 mg/kg | LD50 at 240 h ([4]; po, peroral): > 4000 mg/kg | LD50 at 240 h ([4]; sc, subcutaneous): > 4000 mg/kg | mortality (dead mice / mice used) ([5]; intraperitoneal, 62.5 mg/kg): 0/5 | mortality (dead mice / mice used) ([5]; intraperitoneal, 125 mg/kg): 4/5 | mortality (dead mice / mice used) ([5]; intraperitoneal, 250 mg/kg): 5/5 | mortality (dead mice / mice used) ([5]; intraperitoneal, 500 mg/kg): 5/5 | mortality (dead mice / mice used) ([5]; peroral, 1000 mg/kg): 0/6 | mortality (dead mice / mice used) ([5]; peroral, 2000 mg/kg): 0/6 | mortality (dead mice / mice used) ([5]; peroral, 3000 mg/kg): 0/6 | mortality (dead mice / mice used) ([5]; peroral, 4000 mg/kg): 1/6 | mortality (dead mice / mice used) ([5]; subcutaneous, 4000 mg/kg): 0/5 | inhibition at 10 mg/kg [6, 7]: 79% | inhibition at 10 mg/kg [6, 8]: 99%
